Test results reported in patent publication US8785211B2 (priority 2005, dated 2014).

Target: wild type α-HL single channel (Staphylococcus aureus, UniProt P09616)
Type: binding

wild type α-HL single channel, sequence (P09616 27-319 limits assumed): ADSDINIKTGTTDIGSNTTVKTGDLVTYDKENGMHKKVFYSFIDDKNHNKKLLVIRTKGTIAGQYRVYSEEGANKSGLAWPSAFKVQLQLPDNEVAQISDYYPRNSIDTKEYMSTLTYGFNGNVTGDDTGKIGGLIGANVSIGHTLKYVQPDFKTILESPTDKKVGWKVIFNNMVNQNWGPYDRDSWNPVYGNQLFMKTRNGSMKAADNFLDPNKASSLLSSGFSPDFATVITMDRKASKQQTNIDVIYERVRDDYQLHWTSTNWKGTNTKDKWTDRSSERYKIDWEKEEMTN

heptakis-6-amino-β-cyclodextrin [am7-βCD]
Cyclodextrin binding to wild type pore: led to cyclodextrin binding events
